Patent US20250296960A1, “PEPTIDE COMPOSITIONS AND METHODS OF USE THEREOF” (priority 2022, published 2025)
Entries after “also recorded” stand apart in the source; their conditions may differ. Read-outs that look alike come from different tables or passages of the source. Numbered stars: 1 amine (or outer) side, 2 acyl side, 3 side chain; on linkers, the order of the positions; unused ones are H or OH. Square brackets hold non-standard residues; d marks the D form. Side chains are listed from the residue outwards. Peptide text beside a SMILES is read from it. * marks the point of attachment. C18 diacid = O=C(O)CCCCCCCCCCCCCCCCC(=O)*; γGlu = O=C(O)[C@H](CCC(=O)[*:2])N[*:1]; αMeR = C[C@](N)(CCCNC(=N)N)C(=O)O; AEEA = NCCOCCOCC(=O)O; Aib = CC(C)(N)C(=O)O

How the values were obtained:
human GCGR = target: T1, human GCGR (Homo sapiens, UniProt P47871); assay: cAMP assay (HitHunter cAMP) in GCGR-expressing CHO-K1 cells (GCGR+ cells); format: cell-based; settings: Table 36
T1 construct: host or cells: CHO-K1
Procedure, shortened: (§1)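 Luminescent cAMP read-out: after 30 min peptide stimulation at 37 °C in cAMP assay buffer, receptor-expressing CHO-K1 cells (seeded 7×10^3/well the night before) received antibody and detection reagents for 1 h, then Solution A for 3 h, at room temperature in the dark.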

[1] = In vitro enzymatic stability against FaSSIF/P (pancreatin in FaSSIF, pH 6.5); format: in vitro ADME; settings: simulated gi fluid, pH 6.5, Half-life (min), FaSSIF/P
human GLP-1R = target: T2, human GLP-1R (Homo sapiens, UniProt P43220); assay: cAMP assay (HitHunter cAMP) in GLP-1R-expressing CHO-K1 cells (GLP-1R+ cells); format: cell-based; settings: for activity on GLP-1R compared to SEQ ID NO. 77, in words: Example 13; for Ratio vs. GLP-1R, GLP-1R / Relative % to native ligand, GLP-1R: Table 36
T2 construct: host or cells: CHO-K1
Procedure, shortened: as §1

[2] = format: in vitro ADME; settings: pH 7.8
Method: (§2) For the stability against trypsin, the test samples were prepared by mixing stock solutions of peptide and trypsin dissolved in 50 mM PBS (pH 7.8) containing 0.02% PS80 in a weight ratio of 10:1. The test samples were incubated at 37° C. for 180 min. The sampling from test samples was proceeded at the predetermined time points (10, 30, 60, 90, 120, and 180 min) and stopped by 10% TFA solution.
(§3) Analytical HPLC was performed to determine the remaining amount on an ACQUITY Premier system (Waters, USA) with an ACQUITY CSH C18 column (Waters, USA) at 35° C. using 0.1% TFA in water and acetonitrile. The remaining amount was determined as a percentage of the peak area at the sampling time point relative to the peak area of the initial sample.

trypsin = format: in vitro ADME
Method: as §2, §3

human GIPR = target: T3, human GIPR (Homo sapiens, UniProt P48546); assay: cAMP assay (HitHunter cAMP) in GIPR-expressing CHO-K1 cells (GIPR+ cells); format: cell-based; settings: for Ratio vs. GLP-1R, GIPR / Relative % to native ligand, GIPR: Table 36
T3 construct: host or cells: CHO-K1
T3 sequence (P48546 22-466): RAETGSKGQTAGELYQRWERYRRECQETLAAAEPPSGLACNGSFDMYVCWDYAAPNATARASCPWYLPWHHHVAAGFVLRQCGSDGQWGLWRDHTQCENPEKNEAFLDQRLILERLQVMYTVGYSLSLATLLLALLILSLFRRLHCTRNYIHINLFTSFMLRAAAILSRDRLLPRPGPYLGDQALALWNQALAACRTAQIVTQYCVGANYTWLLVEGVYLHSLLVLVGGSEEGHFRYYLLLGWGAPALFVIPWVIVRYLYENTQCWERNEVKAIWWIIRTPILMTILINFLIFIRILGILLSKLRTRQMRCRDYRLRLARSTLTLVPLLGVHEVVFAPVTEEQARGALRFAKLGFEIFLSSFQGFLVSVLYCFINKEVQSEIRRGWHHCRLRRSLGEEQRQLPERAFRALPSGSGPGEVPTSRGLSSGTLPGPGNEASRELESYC
Procedure, shortened: as §1

[3] = target: human glucose-dependent insulinotropic polypeptide receptor (GIPR), expressed on CHO-K1 cells (human) (UniProt P48546); assay: cell-based or functional assay
[4] = target: human glucose-dependent insulinotropic polypeptide receptor (GIPR), expressed on CHO-K1 cells (human) (UniProt P48546); assay: cell-based or functional assay; remark: listed apart in the source
FaSSIF/P = assay: In vitro enzymatic stability against FaSSIF/P (pancreatin in FaSSIF, pH 6.5); format: in vitro ADME
[5] = In vivo efficacy in CDA-HFD (NASH) mice, 4 weeks; settings: Example 16
Method: This study was conducted to evaluate the efficacy of SEQ ID NOs. […] SEQ ID NOs. The peptides were delivered at 0.02% PS80 in PBS and dosing volume was 10 mL/kg. Control group was administered by vehicle without peptide.
Body weight changes were monitored Q2D; serum chemistry (end); hepatic TG (end); and histological analysis (end). […]

[6] = In vivo efficacy in mAMLN (obese and NASH) mice, 4 weeks; settings: after 4 weeks

T1 sequence (P47871 26-477): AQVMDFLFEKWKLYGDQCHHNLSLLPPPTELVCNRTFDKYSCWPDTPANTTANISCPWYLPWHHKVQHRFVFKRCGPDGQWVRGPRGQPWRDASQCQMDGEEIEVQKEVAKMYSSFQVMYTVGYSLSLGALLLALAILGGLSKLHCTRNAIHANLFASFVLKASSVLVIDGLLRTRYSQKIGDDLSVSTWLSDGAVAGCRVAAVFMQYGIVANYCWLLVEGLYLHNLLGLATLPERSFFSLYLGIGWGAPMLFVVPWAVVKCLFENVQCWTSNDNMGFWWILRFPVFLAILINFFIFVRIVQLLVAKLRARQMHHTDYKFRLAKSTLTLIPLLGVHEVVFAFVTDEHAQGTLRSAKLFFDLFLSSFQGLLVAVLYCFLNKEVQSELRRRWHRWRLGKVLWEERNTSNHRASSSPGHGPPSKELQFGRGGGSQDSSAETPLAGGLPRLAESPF
T2 sequence (P43220 24-463): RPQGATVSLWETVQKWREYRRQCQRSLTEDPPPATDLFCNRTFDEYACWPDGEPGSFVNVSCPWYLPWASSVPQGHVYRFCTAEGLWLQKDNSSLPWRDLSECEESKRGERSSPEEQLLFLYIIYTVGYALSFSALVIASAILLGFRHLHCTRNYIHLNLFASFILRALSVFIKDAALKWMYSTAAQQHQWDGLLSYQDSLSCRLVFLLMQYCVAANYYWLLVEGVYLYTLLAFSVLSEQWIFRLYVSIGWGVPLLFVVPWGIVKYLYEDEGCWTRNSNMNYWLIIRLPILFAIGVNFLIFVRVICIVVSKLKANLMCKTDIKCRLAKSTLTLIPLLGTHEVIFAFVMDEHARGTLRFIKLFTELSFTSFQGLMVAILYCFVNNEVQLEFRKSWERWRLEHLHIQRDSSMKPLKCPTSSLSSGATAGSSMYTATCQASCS

Molecule	Ratio vs. GLP-1R, GCGR (human GCGR)	Relative % to native ligand, GCGR (human GCGR)	half-life [1]	activity on GLP-1R compared to SEQ ID NO. 77, in words (human GLP-1R)	Ratio vs. GLP-1R, GLP-1R (human GLP-1R)	Relative % to native ligand, GLP-1R (human GLP-1R)	half-life [2]	stability against trypsin compared with SEQ ID NO. 77, in words (trypsin)	Ratio vs. GLP-1R, GIPR (human GIPR)	Relative % to native ligand, GIPR (human GIPR)	further results
CSCC[C@H](NC(=O)[C@H](Cc1ccc(O)cc1)NC(=O)[C@H](CC(=O)O)NC(=O)[C@H](CC(C)C)NC(=O)[C@H](CC(C)C)NC(=O)[C@H](CCCCNC(=O)COCCOCCNC(=O)COCCOCCNC(=O)CC[C@H](NC(=O)CCCCCCCCCCCCCCCCC(=O)O)C(=O)O)NC(=O)[C@H](CO)NC(=O)[C@H](Cc1ccc(O)cc1)NC(=O)[C@H](CC(=O)O)NC(=O)[C@H](CO)NC(=O)[C@@H](NC(=O)[C@H](Cc1ccccc1)NC(=O)[C@@H](NC(=O)CNC(=O)[C@H](CCC(N)=O)NC(=O)C(C)(C)NC(=O)[C@@H](N)Cc1ccc(O)cc1)[C@@H](C)O)[C@@H](C)O)C(=O)N[C@@H](CCSC)C(=O)N[C@@H](CCC(N)=O)C(=O)N[C@@H](Cc1c[nH]cn1)C(=O)N[C@@H](CC(=O)O)C(=O)N[C@@H](Cc1ccccc1)C(=O)N[C@H](C(=O)N[C@@H](CCC(N)=O)C(=O)N[C@@H](Cc1c[nH]c2ccccc12)C(=O)N[C@@H](CC(C)C)C(=O)N[C@@H](CC(C)C)C(=O)N[C@@H](CCC(=O)O)C(=O)NCC(=O)NCC(=O)N1CCC[C@H]1C(=O)N[C@@H](CO)C(=O)N[C@@H](CO)C(=O)NCC(=O)N[C@@H](C)C(=O)N1CCC[C@H]1C(=O)N1CCC[C@H]1C(=O)N1CCC[C@H]1C(=O)N[C@@H](CO)C(N)=O)C(C)C [compound 99] (H-Y[Aib]QGTFTSDYSK([AEEA-AEEA-γGlu-C18 diacid])LLDYMMQHDFVQWLLEGGPSSGAPPPS-NH2; N-terminus assumed)	80	28%	0.632 h	slightly decreased	100	35%	> 7.23 h	increased half-lives	3237	1132%	–
GIP (native ligand) (from UniProt P09681 52-93)	–	–	–	–	–	–	–	–	–	–	EC50 (nM), cAMP assay [3]: 0.732 nM; EC50, c-AMP release (FIG. 8C) [3]: 0.24 nM; EC50, c-AMP release (FIG. 9C) [3]: 0.24 nM; EC50, cAMP release (FIG. 7C) [3]: 1.78 nM; Percentage change in EC50 relative to GIP at human GIPR (%) [3]: 100%; EC50 (nM), cAMP assay [4]: 2.03 nM
CSCC[C@H](NC(=O)[C@H](Cc1ccc(O)cc1)NC(=O)[C@H](CC(=O)O)NC(=O)[C@H](CC(C)C)NC(=O)[C@H](CC(C)C)NC(=O)[C@H](CCCCNC(=O)COCCOCCNC(=O)COCCOCCNC(=O)CC[C@H](NC(=O)CCCCCCCCCCCCCCCCC(=O)O)C(=O)O)NC(=O)[C@H](CO)NC(=O)[C@H](Cc1ccc(O)cc1)NC(=O)[C@H](CC(=O)O)NC(=O)[C@H](CO)NC(=O)[C@@H](NC(=O)[C@H](Cc1ccccc1)NC(=O)[C@@H](NC(=O)CNC(=O)[C@H](CCC(N)=O)NC(=O)C(C)(C)NC(=O)[C@@H](N)Cc1ccc(O)cc1)[C@@H](C)O)[C@@H](C)O)C(=O)N[C@@H](CCSC)C(=O)N[C@@H](CCC(N)=O)C(=O)N[C@@](C)(CCCNC(=N)N)C(=O)N[C@@H](CC(=O)O)C(=O)N[C@@H](Cc1ccccc1)C(=O)N[C@H](C(=O)N[C@@H](CCC(N)=O)C(=O)N[C@@H](Cc1c[nH]c2ccccc12)C(=O)N[C@@H](CC(C)C)C(=O)N[C@@H](CC(C)C)C(=O)N[C@@H](CCC(=O)O)C(=O)NCC(=O)NCC(=O)N1CCC[C@H]1C(=O)N[C@@H](CO)C(=O)N[C@@H](CO)C(=O)NCC(=O)N[C@@H](C)C(=O)N1CCC[C@H]1C(=O)N1CCC[C@H]1C(=O)N1CCC[C@H]1C(=O)N[C@@H](CO)C(N)=O)C(C)C [compound 101] (H-Y[Aib]QGTFTSDYSK([AEEA-AEEA-γGlu-C18 diacid])LLDYMMQ[αMeR]DFVQWLLEGGPSSGAPPPS-NH2; N-terminus assumed)	12	89%	1.18 h	increased	100	722%	> 7.23 h	improved stability	65	472%	stability against FaSSIF/P compared with SEQ ID NO. 77, in words (FaSSIF/P): improved stability; efficacy in the NASH model, in words [5]: most excellent efficacy; hepatic steatosis score compared to CDA-HFD control, in words [5]: significantly reduced; scores of hepatocytes inflammation and NAS score, in words [5]: statistically reduced; also recorded: most decreased; body weight compared to vehicle-treated control, in words ([5]; 20 nmol/kg s.c. Q2D, 4 weeks): reduce body weight; also recorded: greatest weight loss; liver enzymes and liver steatosis compared to vehicle-treated control, in words ([5]; end of treatment): reduce liver enzymes and liver steatosis significantly; activity on GIPR compared to SEQ ID NO. 77, in words (human GIPR; Example 13): increased; NAS score, in words [6]: statistically decreased more than the level of tirzepatide; hepatic steatosis (histological score), in words [6]: significantly reduced; liver weight, visceral fat weight, liver enzymes, and liver steatosis compared to vehicle-treated control, in words [6]: significantly reduced
